Data on 3 compounds can be found in US11173184B2 (priority 2016, dated 2021).

Like-named read-outs stand apart in the source and are kept apart here.

One test concerns Vencobb 400 broilers. It is filed as in vivo, broiler chickens.
Test [1] has as its system male Ross 308 broilers with induced Necrotic Enteritis challenge (E. maxima, Clostridium perfringens). It is filed as in vivo, broiler chickens.
The subject of test [2] is male Ross 308 broilers with induced Necrotic Enteritis challenge. Also noted: species or system broiler chickens. Conditions: in vivo.
The test system of the next test is Clostridium perfringens. It is filed as in vivo.
The test system of another test is Bacillus spp. Briefly: Molecular enumeration (quantitative PCR) in digesta. It is filed as in vivo.
In another test the test system is male Ross 308 broilers. It is filed as in vivo, broiler chickens. The settings on record: 1-42 d.
[3] abbreviates: 1-35 days, necrotic enteritis challenge.

Take “Bacitracin Methylene Disalicyclate [BMD]”: the entries for the “BW, average bird body weight” value with Vencobb 400 broilers (1-21 d) and with Vencobb 400 broilers (1-42 d) were 649.4 g and 2321.4 g, respectively. For the same compound, the “FCR, feed conversion ratio (feed to gain)” value with Vencobb 400 broilers (1-21 d) was determined as 1.45 g/g; with Vencobb 400 broilers (1-42 d), 1.74 g/g.
On to `CC[C@@H](C(=O)O)[C@@H]1O[C@@H]([C@@H](C)[C@H](O)[C@H](C)C(=O)[C@H](CC)[C@H]2O[C@]3(C=C[C@@H](O)[C@]4(CC[C@@](C)([C@H]5CC[C@](O)(CC)[C@H](C)O5)O4)O3)[C@H](C)C[C@@H]2C)[C@@H](C)C[C@@H]1C` [Narasin], for which the “BW, average bird body weight” value in test [1] (setting [3]) came to 2778.4 g. The “FCR, feed conversion ratio (feed to gain)” value in test [1] (setting [3]) is 1.431 g/g. Moreover, in test [1] (setting [3]), the “aFCR, feed conversion ratio adjusted for mortalities” value worked out at 1.425 g/g. In test [1] (day 11-35, necrotic enteritis challenge), the “Mortality as a percentage of the pen population” value was 1.3%. In test [2], the “Footpad Lesion Score (0-4)” value is recorded as 0.41. The C. perfringens is 6.38 Log^10 of gene copies/g in the test with Clostridium perfringens (Day 11 Cecum); 4.18 Log^10 of gene copies/g in the test with Clostridium perfringens (Day 11 Ileum); 4.87 Log^10 of gene copies/g in the test on Clostridium perfringens (Day 18 Cecum); 4.60 Log^10 of gene copies/g with Clostridium perfringens (Day 18 Ileum); 4.81 Log^10 of gene copies/g in the test on Clostridium perfringens (Day 35 Cecum); 4.03 Log^10 of gene copies/g in the test with Clostridium perfringens (Day 35 Ileum). The Bacillus spp. was 5.24 Log^10 of gene copies/g in the test on Bacillus spp. (Day 11 Cecum); 5.68 Log^10 of gene copies/g in the test on Bacillus spp. (Day 11 Ileum); 4.54 Log^10 of gene copies/g with Bacillus spp. (Day 18 Cecum); 4.94 Log^10 of gene copies/g in the test with Bacillus spp. (Day 18 Ileum); 5.23 Log^10 of gene copies/g in the test with Bacillus spp. (Day 35 Cecum); 4.84 Log^10 of gene copies/g in the test on Bacillus spp. (Day 35 Ileum).
As to Zinc Bacitracin [ZnB], in the test on male Ross 308 broilers, the “BW, average bird body weight” value turned out to be 2988.0 g; the “FCR, feed conversion ratio adjusted for mortalities” value stood at 1.78 g/g; the Mortality is listed as 1.67%.
